Laboratory results from patent publication US11945806B2, “Stabilization of amyloidogenic immunoglobulin light chains” (The Scripps Research Institute, priority 2019, dated 2024).

What follows are compounds tested against WIL-FL (Homo sapiens, UniProt P01721) (assay: Unlabeled LC Protease Sensitivity Assay (proteinase K)). Conditions: small molecule 10 μM, WIL-FL 5 μM, proteinase K 50 nM, 2 hours at 37° C.
Type: biochemical
Procedure, shortened: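 Compound at 10 μM (1% DMSO) is mixed with 5 μM WIL-FL and 50 nM proteinase K in PBS pH 7.4/0.02% Pluronic F-127, 37 °C, 2 h, then quenched with PMSF. Remaining protein measured by SEC-UPLC peak area at 280 nm and expressed as fold protection relative to vehicle and no-protease controls.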

| Protection (fold protection of LC from protease) | Compound |
| --- | --- |
| C (C ≥ 0.6) | CCN(CC)c1ccc2c(C)c(CCOC(=O)NCc3cccc(-c4ccccc4O)c3)c(=O)oc2c1 [Compound 218, 2-(7-(diethylamino)-4-methyl-2-oxo-2H-chromen-3-yl)ethyl ((2′-hydroxy-[1,1′-biphenyl]-3-yl)methyl)carbamate] |
| A (A < 0.3)) | C#CCN(CC)c1ccc2c(C)cc(=O)oc2c1 [Compound 271, 7-(ethyl(prop-2-yn-1-yl)amino)-4-methyl-2H-chromen-2-one] |
| A (A < 0.3)) | CCN(CC)c1ccc2c(C)c(CCNC(=O)NCc3ccnc4ccccc34)c(=O)oc2c1 [Compound 287, 1-(2-(7-(diethylamino)-4-methyl-2-oxo-2H-chromen-3-yl)ethyl)-3-(quinolin-4-ylmethyl)urea] |
| B (3 ≤ B < 0.6) | CCN(CC)c1ccc2c(C)c(CCNC(=O)NCCc3ccc(O)cc3)c(=O)oc2c1 [Compound 280, 1-(2-(7-(diethylamino)-4-methyl-2-oxo-2H-chromen-3-yl)ethyl)-3-(4-hydroxyphenethyl)urea] |
| A (A < 0.3)) | Cc1cc(=O)oc2cc(N(CC3CC3)CC3CC3)ccc12 [Compound 245, 7-(bis(cyclopropylmethyl)amino)-4-methyl-2H-chromen-2-one] |
| B (3 ≤ B < 0.6) | CCN(CC)c1ccc2c(C)c(CCN3C(=O)NC4(CCN(C(=O)c5ccc(C(N)=O)cc5)C4)C3=O)c(=O)oc2c1 (centres unmarked) [Compound 199, 4-(3-(2-(7-(diethylamino)-4-methyl-2-oxo-2H-chromen-3-yl)ethyl)-2,4-dioxo-1,3,7-triazaspiro[4.4]nonane-7-carbonyl)benzamide] |
| C (C ≥ 0.6) | CCN(CC)c1ccc2c(C)c(CCN3C(=O)NC4(CCN(C(=O)c5cnc[nH]5)C4)C3=O)c(=O)oc2c1 (centres unmarked) [Compound 180, 3-(2-(7-(diethylamino)-4-methyl-2-oxo-2H-chromen-3-yl)ethyl)-7-(1H-imidazole-4-carbonyl)-1,3,7-triazaspiro[4.4]nonane-2,4-dione] |
| A (A < 0.3)) | Cc1cc(=O)oc2cc(C(=O)Nc3ccc4ncccc4c3)ccc12 [Compound 235, 4-methyl-2-oxo-N-(quinolin-6-yl)-2H-chromene-7-carboxamide] |
| A (A < 0.3)) | CCN(CC)c1ccc2c(CCCOC(=O)NCc3cccc(CCC(=O)O)c3)cc(=O)oc2c1 [Compound 305, 3-(3-((((3-(7-(diethylamino)-2-oxo-2H-chromen-4-yl)propoxy)carbonyl)amino)methyl)phenyl)propanoic acid] |
| B (3 ≤ B < 0.6) | CCN(CC)c1ccc2c(C)c(CCN3C(=O)NC4(CCN(C(=O)c5ccncn5)C4)C3=O)c(=O)oc2c1 (centres unmarked) [Compound 207, 3-(2-(7-(diethylamino)-4-methyl-2-oxo-2H-chromen-3-yl)ethyl)-7-(pyrimidine-4-carbonyl)-1,3,7-triazaspiro[4.4]nonane-2,4-dione] |

Second part, the compound before the results:

| Compound | Protection (fold protection of LC from protease) |
| --- | --- |
| CCN(CC)c1ccc2c(C)c(CCN3C(=O)NC4(CCN(C(=O)c5c[nH]cn5)CC4)C3=O)c(=O)oc2c1 [Compound 176, 3-(2-(7-(diethylamino)-4-methyl-2-oxo-2H-chromen-3-yl)ethyl)-8-(1H-imidazole-4-carbonyl)-1,3,8-triazaspiro[4.5]decane-2,4-dione] | B (3 ≤ B < 0.6) |
| CCN(CC)c1ccc2c(C)c(CCNC(=O)OCc3cccnc3)c(=O)oc2c1 [Compound 100, Pyridin-3-ylmethyl (2-(7-(diethylamino)-4-methyl-2-oxo-2H-chromen-3-yl)ethyl)carbamate] | A (A < 0.3)) |
| CCN(CC)c1ccc2c(C)c(CCOC(=O)NCCCN(C)C)c(=O)oc2c1 [Compound 133, 2-(7-(diethylamino)-4-methyl-2-oxo-2H-chromen-3-yl)ethyl (3-(dimethylamino)propyl)carbamate] | B (3 ≤ B < 0.6) |
| CCN(CC)c1ccc2c(C)c(CCOC(=O)NCC3CCNCC3)c(=O)oc2c1 [Compound 147, 2-(7-(diethylamino)-4-methyl-2-oxo-2H-chromen-3-yl)ethyl (piperidin-4-ylmethyl)carbamate] | B (3 ≤ B < 0.6) |
| CCN(CC)c1ccc2c(C)c(CCNC(=O)NC)c(=O)oc2c1 [Compound 131, 1-(2-(7-(diethylamino)-4-methyl-2-oxo-2H-chromen-3-yl)ethyl)-3-methylurea] | B (3 ≤ B < 0.6) |
| CCN(CC)c1ccc2c(C)c(CCOC(=O)N3CCN(c4ccccn4)CC3)c(=O)oc2c1 [Compound 114, 2-(7-(diethylamino)-4-methyl-2-oxo-2H-chromen-3-yl)ethyl 4-(pyridin-2-yl)piperazine-1-carboxylate] | A (A < 0.3)) |
| CCN(CC)c1ccc2c(C)c(CCOC(=O)NCc3cccc(-c4ccc[nH]c4=O)c3)c(=O)oc2c1 [Compound 163, 2-(7-(diethylamino)-4-methyl-2-oxo-2H-chromen-3-yl)ethyl (3-(2-oxo-1,2-dihydropyridin-3-yl)benzyl)carbamate] | C (C ≥ 0.6) |
| CC(C)CC1NC(=O)N(CC(=O)Nc2ccc(C(F)(F)F)cc2)C1=O (single isomer, unassigned) [Compound 23] | A (A < 0.3)) |
| CCN(CC)c1ccc2c(C)c(CCOC(=O)NCc3nccc4ccccc34)c(=O)oc2c1 [Compound 139, 2-(7-(diethylamino)-4-methyl-2-oxo-2H-chromen-3-yl)ethyl (isoquinolin-1-ylmethyl)carbamate] | A (A < 0.3)) |
| CCN(CC)c1ccc2c(C)c(CCOC(=O)NCCCc3ccccc3)c(=O)oc2c1 [Compound 81, 2-(7-(diethylamino)-4-methyl-2-oxo-2H-chromen-3-yl)ethyl (3-phenylpropyl)carbamate] | A (A < 0.3)) |
| CCN(CC)c1ccc2c(C)c(CCC(=O)O)c(=O)oc2c1 [Compound 62, 3-(7-(diethylamino)-4-methyl-2-oxo-2H-chromen-3-yl)propanoic acid] | A (A < 0.3)) |
| Cc1cc(=O)oc2cc(OC(C)c3ccccc3F)ccc12 (centres unmarked) [Compound 49, 7-(1-(2-fluorophenyl)ethoxy)-4-methyl-2H-chromen-2-one] | A (A < 0.3)) |
| CCN(CC)c1ccc2c(C)c(CCOC(=O)NCc3cccc(-c4cccnn4)c3)c(=O)oc2c1 [Compound 166, 2-(7-(diethylamino)-4-methyl-2-oxo-2H-chromen-3-yl)ethyl (3-(pyridazin-3-yl)benzyl)carbamate] | C (C ≥ 0.6) |
| CCN(CC)c1ccc2c(C)c(CCOC(=O)NCc3ccc(NC(C)=O)cn3)c(=O)oc2c1 [Compound 127, 2-(7-(diethylamino)-4-methyl-2-oxo-2H-chromen-3-yl)ethyl ((5-acetamidopyridin-2-yl)methyl)carbamate] | B (3 ≤ B < 0.6) |
| CCN(CC)c1ccc2c(C)c(CCOC(=O)N3CCN(c4ncccn4)CC3)c(=O)oc2c1 [Compound 116, 2-(7-(diethylamino)-4-methyl-2-oxo-2H-chromen-3-yl)ethyl 4-(pyrimidin-2-yl)piperazine-1-carboxylate] | A (A < 0.3)) |
| CCN(CC)c1ccc2c(C)c(CCC(=O)NCCc3cccc(F)c3)c(=O)oc2c1 [Compound 72] | A (A < 0.3)) |
